# Measurements taken from EPA's ToxRefDB 2.
# How the values were obtained:
# [1] = system: rat; conditions: Combined chronic toxicity/carcinogenicity, sprague dawley, Dermal, Topical, dose end: 101 week, group: systemic
# [2] = system: hamster; conditions: Subchronic oral toxicity in rodents, golden syrian, Feed, dose end: 90 day, group: systemic, systemic / in life observation / body weight / body weight + systemic / in life observation / body weight / body weight gain + systemic / in…
# [3] = system: rat; conditions: Subchronic oral toxicity in rodents, wistar, Feed, dose end: 90 day, group: systemic, systemic / clinical chemistry / cholesterol / cholesterol + systemic / pathology microscopic / kidney / degeneration + systemic / pathology …
# [4] = system: rabbit; conditions: Prenatal developmental toxicity study, new zealand white, Oral, Gavage/Intubation, dose end: 28 GD
# [5] = system: rat; conditions: Prenatal developmental toxicity study, sprague dawley, Oral, Gavage/Intubation, dose end: 20 GD
# [6] = system: dog; conditions: Chronic toxicity, beagle, Oral, Capsule, dose end: 55 week, group: systemic
# [7] = system: rat; conditions: Combined chronic toxicity/carcinogenicity, wistar, Oral, Feed, dose end: 106 week, group: systemic
# [8] = system: rabbit; conditions: Prenatal developmental toxicity study, new zealand white, Oral, Gavage/Intubation, dose end: 20 GD
# [9] = system: rat; conditions: Multigenerational reproductive toxicity study, wistar, Oral, Feed, dose end: 2 generation
# [10] = system: rat; conditions: Prenatal developmental toxicity study, sprague dawley, Oral, Gavage/Intubation, dose end: 20 GD; remark: listed apart in the source
# [11] = system: rat; conditions: Combined chronic toxicity/carcinogenicity, sprague dawley, Oral, Feed, dose end: 104 week, group: systemic
# [12] = system: dog; conditions: Subchronic oral toxicity in nonrodent, beagle, Capsule, dose end: 13 week, group: systemic, systemic / clinical chemistry / alanine aminotransferase (alt/sgpt) / alanine aminotransferase (alt/sgpt) + systemic / clinical chemistry / …
# [13] = systemic / pathology microscopic / mammary gland / fibroadenoma + systemic / in life observation / body weight / body weight + systemic / in…
# [14] = systemic / pathology microscopic / mammary gland / fibroadenoma + systemic / pathology microscopic / pituitary gland / acidophil adenoma + …
# [15] = group: developmental, developmental / developmental malformation / bone / incomplete ossification + developmental / developmental malformation / eye / [other] + …
# [16] = group: maternal, reproductive / reproductive performance / aborted / aborted + reproductive / reproductive performance / postimplantation loss / …
# [17] = group: developmental, developmental / developmental malformation / bone / incomplete ossification
# [18] = group: maternal, reproductive / reproductive performance / postimplantation loss / postimplantation loss + systemic / in life observation / body weight / …
# [19] = systemic / pathology microscopic / adrenal gland / vacuolization + systemic / clinical chemistry / [other] / [other] + systemic / clinical …
# [20] = systemic / in life observation / body weight / body weight gain
# [21] = group: developmental, developmental / developmental malformation / bone / full supernumerary + developmental / developmental malformation / bone / incomplete …
# [22] = group: maternal, reproductive / reproductive performance / aborted / aborted + systemic / in life observation / body weight / body weight gain + systemic / …
# [23] = group: maternal, reproductive / offspring survival early / litter size / litter size
# [24] = group: parental, systemic / organ weight / epididymis / absolute + systemic / organ weight / epididymis / relative to body weight
# [25] = group: parental, systemic / organ weight / epididymis / absolute + systemic / organ weight / epididymis / relative to body weight + systemic / organ weight…
# [26] = group: reproductive, reproductive / reproductive performance / gestational length / gestational length + reproductive / reproductive performance / implantations…
# [27] = group: developmental, systemic / in life observation / body weight / fetal weight + developmental / developmental malformation / bone / absent + developmental / …
# [28] = group: maternal, reproductive / reproductive performance / implantations / implantations
# [29] = systemic / in life observation / clinical signs / fur (altered appearance)
compound,measurement,setting,value
CC/C(=C(\c1ccc(O)cc1)c1ccc(OCCN(C)C)cc1)c1ccccc1 [4-Hydroxytamoxifen],LEL,[1]; [13],0.02 mg/kg/day
same,NEL,[1]; [13],< 0.02 mg/kg/day
same,LOAEL,[1]; [14],> 1 mg/kg/day
same,NOAEL,[1]; [14],≥ 1 mg/kg/day
CCCCOC(=O)C(C)Oc1ccc(Oc2ccc(C(F)(F)F)cn2)cc1 (stereo unspecified) [Fluazifop-butyl],LEL,[2],292 mg/kg/day
same,LOAEL,[2],292 mg/kg/day
same,NEL,[2],78.3 mg/kg/day
same,NOAEL,[2],78.3 mg/kg/day
same,LEL,[3],7.1 mg/kg/day
same,LOAEL,[3],7.1 mg/kg/day
same,NEL,[3],0.7 mg/kg/day
same,NOAEL,[3],0.7 mg/kg/day
same,LEL,[4]; [15],90 mg/kg/day
same,LOAEL,[4]; [15],90 mg/kg/day
same,NEL,[4]; [15],30 mg/kg/day
same,NOAEL,[4]; [15],30 mg/kg/day
same,LEL,[4]; [16],90 mg/kg/day
same,LOAEL,[4]; [16],90 mg/kg/day
same,NEL,[4]; [16],30 mg/kg/day
same,NOAEL,[4]; [16],30 mg/kg/day
same,LEL,[5]; [17],10 mg/kg/day
same,LOAEL,[5]; [17],10 mg/kg/day
same,NEL,[5]; [17],< 10 mg/kg/day
same,NOAEL,[5]; [17],< 10 mg/kg/day
same,LEL,[5]; [18],200 mg/kg/day
same,LOAEL,[5]; [18],> 200 mg/kg/day
same,NEL,[5]; [18],50 mg/kg/day
same,NOAEL,[5]; [18],≥ 200 mg/kg/day
same,NEL,[6]; [19],5 mg/kg/day
same,NOAEL,[6]; [19],5 mg/kg/day
same,LOAEL,[6]; systemic / pathology microscopic / adrenal gland / vacuolization + systemic / pathology microscopic / thymus / involution,25 mg/kg/day
same,LEL,[6]; systemic / pathology microscopic / adrenal gland / vacuolization + systemic / pathology microscopic / thymus / involution + systemic / …,25 mg/kg/day
same,LEL,[7]; [20],0.127 mg/kg/day
same,NEL,[7]; [20],< 0.127 mg/kg/day
same,LOAEL,[7]; systemic / pathology microscopic / kidney / nephropathy + systemic / in life observation / mortality / mortality,4.15 mg/kg/day
same,NOAEL,[7]; systemic / pathology microscopic / kidney / nephropathy + systemic / organ weight / kidney / absolute + systemic / organ weight / kidney / …,0.51 mg/kg/day
same,LEL,[8]; [21],50 mg/kg/day
same,LOAEL,[8]; [21],50 mg/kg/day
same,NEL,[8]; [21],10 mg/kg/day
same,NOAEL,[8]; [21],10 mg/kg/day
same,LEL,[8]; [22],50 mg/kg/day
same,LOAEL,[8]; [22],50 mg/kg/day
same,NEL,[8]; [22],10 mg/kg/day
same,NOAEL,[8]; [22],10 mg/kg/day
same,LEL,[9]; [23],17.5 mg/kg/day
same,LOAEL,[9]; [23],17.5 mg/kg/day
same,NEL,[9]; [23],5.8 mg/kg/day
same,NOAEL,[9]; [23],5.8 mg/kg/day
same,LOAEL,"[9]; group: offspring, reproductive / offspring survival early / litter size / litter size",17.5 mg/kg/day
same,NOAEL,"[9]; group: offspring, reproductive / offspring survival early / litter size / litter size + systemic / pathology microscopic / kidney / hydronephrosis",5.8 mg/kg/day
same,LEL,"[9]; group: offspring, systemic / pathology microscopic / kidney / hydronephrosis",7.1 mg/kg/day
same,NEL,"[9]; group: offspring, systemic / pathology microscopic / kidney / hydronephrosis + developmental / offspring survival late / viability index / viability index + …",0.88 mg/kg/day
same,LEL,[9]; [24],0.74 mg/kg/day
same,NEL,[9]; [24],< 0.74 mg/kg/day
same,LOAEL,[9]; [25],5.8 mg/kg/day
same,NOAEL,[9]; [25],0.74 mg/kg/day
same,NEL,"[9]; group: reproductive, reproductive / offspring survival early / birth index / live birth index + reproductive / reproductive performance / fertility / fertility…",0.88 mg/kg/day
same,LEL,"[9]; group: reproductive, reproductive / reproductive performance / gestational length / gestational length",7.1 mg/kg/day
same,LOAEL,[9]; [26],> 21.7 mg/kg/day
same,NOAEL,[9]; [26],≥ 21.7 mg/kg/day
same,LOAEL,"[10]; group: developmental, systemic / in life observation / body weight / fetal weight",5 mg/kg/day
same,LEL,[10]; [27],5 mg/kg/day
same,NEL,[10]; [27],1 mg/kg/day
same,NOAEL,[10]; [27],1 mg/kg/day
same,LEL,[10]; [28],10 mg/kg/day
same,LOAEL,[10]; [28],> 200 mg/kg/day
same,NEL,[10]; [28],5 mg/kg/day
same,NOAEL,[10]; [28],≥ 200 mg/kg/day
same,LEL,[11]; [29],0.1 mg/kg/day
same,NEL,[11]; [29],< 0.1 mg/kg/day
same,LOAEL,[11]; systemic / in life observation / mortality / mortality,3 mg/kg/day
same,NOAEL,[11]; systemic / in life observation / mortality / mortality + systemic / in life observation / clinical signs / fur (altered appearance) + …,1 mg/kg/day
same,LEL,[12],250 mg/kg/day
same,LOAEL,[12],250 mg/kg/day
same,NEL,[12],25 mg/kg/day
same,NOAEL,[12],25 mg/kg/day
